In the SangsterLogP compilation:

Tests used:
[1] = method code SF-AS, from DOI: 10.1016/s0006-2952(02)01074-2, PMID: 12392818; details: pH 7.4
[2] = method code SF-EPR, from DOI: 10.1007/bf01870789, PMID: 2549250; details: pH 12.0
[3] = not given; remark: listed apart in the source
[4] = method code SF-HPLC, from DOI: 10.1002/jps.10112, PMID: 12115830; details: pH 7.4
[5] = method code SF, from DOI: 10.1177/1087057110396372, PMID: 21343602; details: pH 7.4
[6] = not given; remark: listed apart in the source
[7] = method code SF-TN, from DOI: 10.1002/ardp.19763091008, PMID: 1008678
[8] = method code SF, from DOI: 10.1093/jnci/60.2.345, PMID: 621753
[9] = not given; remark: listed apart in the source
[10] = method code SF-GLC,AS, from DOI: 10.2134/jeq1981.00472425001000030028x
[11] = method code SF-RC, from DOI: 10.1111/j.1399-3054.1990.tb08712.x
[12] = not given; remark: listed apart in the source
[13] = method code SF-HPLC, from DOI: 10.1002/jps.2600841008, PMID: 8801331; details: pH 3.1
[14] = not given; remark: listed apart in the source
[15] = method code SF-AS, from DOI: 10.1016/s0021-9673(03)00617-4, PMID: 12830921
[16] = not given; remark: listed apart in the source
[17] = method code SF-AS, from DOI: 10.1021/jm00154a021, PMID: 3959031; details: pH 9.0
[18] = method code SF-AS, from DOI: 10.1021/jf60177a051
[19] = method code SF-AS, from PMID: 1705424; details: pH 7.4
[20] = not given; remark: listed apart in the source
[21] = not given; remark: listed apart in the source
[22] = method code SF-HPLC, from DOI: 10.1021/js970451q, PMID: 9687340; details: pH 6.0
[23] = method code SF-AS, from DOI: 10.1016/s0090-9556(25)07961-9, PMID: 6130927; details: pH 12.0

CC(C)NCC(O)c1ccc(Cl)c(Cl)c1 (centres undefined)
logP: 3.32

CC(=O)c1cc2ccccc2oc1=O
logD [1]: 1.5

CN(C)C1CC(C)(C)N(O)C(C)(C)C1
logD [2]: 1.13

O=C(O)c1cccc2ccccc12
logP [3]: 2.78

CC(SSc1ncc[nH]1)c1ccccc1 (centres undefined)
logD [4]: 3.39

c1ccc(Nc2ccccc2)cc1
logD [5]: 3.57

Nc1ccc(S(=O)(=O)Nc2cccc(Cl)c2Cl)cc1
logP [6]: 2.62

CCNC(=O)C1C2CC3C(OC(=O)C31)C2O (centres undefined)
logP [7]: -0.35

O=NN(CCCl)C(=O)NCCCCNC(=O)N(CCCl)N=O
logP [8]: 0.9

CC(=O)c1ccc(C(C)C)cc1
logP [9]: 2.98

CCN(CC)c1nc(Cl)nc(NC(C)C)n1
logP [10]: 3.94

c1ccc(CNc2ncnc3[nH]cnc23)cc1
logP [11]: 1.57

Clc1cc(Cl)c(Oc2ccccc2)cc1Cl
logP [12]: 5.44

O=C(O)CCCCc1ccccc1
logD [13]: 2.73

C=CC(=O)OCC(CC)CCCC (centres undefined)
logP [14]: 4.29

CCc1c(C)nc2ccccn2c1=O
logP [15]: 1.58

c1cc2c3c(cccc3c1)CC2
logP [16]: 3.98

CN1CCN(CCn2cncc2[N+](=O)[O-])CC1
logD [17]: -0.2

Cc1nc(C)c(C(=O)Nc2ccccc2)s1
logP [18]: 1.08

CC(C)Cn1cnc2c1c(=O)n(C)c(=O)n2C
logD [19]: 1.28

CCCOCCc1ccc(O)c(O)c1
logP [20]: 1.64

CC1(C)CC(C(=O)O)CC(C)(C)N1O
logP [21]: 1.25

COc1cc(C)nc(-n2nc(C)cc2OC)n1
logD [22]: 1.35

CC(C)[C@@H](N)Cc1ccccc1
logD [23]: 2.59
